The values that follow come from patent publication US8367365B2, “Method for determining carbohydrate and kit for determining carbohydrate” (priority 2008, dated 2013).

Molecules are shown by their SMILES. Where two headings read alike, the source gives them in different places.

The data set deals with porcine small intestinal mucosal disaccharidase (suspension of porcine small intestinal mucosal brush border membrane). It counts as in vitro ADME. The following applies: porcine small intestine-derived disaccharidase added to the enzyme reaction system, HPLC.

From the text: In the method for determining a carbohydrate according to the embodiment of the present invention and the method for determining a carbohydrate according to Examples described below, a suspension of porcine small intestinal mucosal brush border membrane is used as the animal-derived low-molecular-weight carbohydrate digestive enzyme.

In the case of `OC[C@H]1O[C@@](CO)(O[C@H]2O[C@H](CO)[C@@H](O)[C@H](O)[C@H]2O)[C@@H](O)[C@@H]1O` [sucrose], the “Digestion by porcine small intestinal mucosal disaccharidases (result in words)” value is given as “almost completely digested”. In addition, the “Digestion by porcine small intestinal mucosal disaccharidases (result in words)” value (listed as Sucrose) is recorded as “completely digested”.
